The source of these data is patent US12084442B2, “Naphthyridinone derivatives for the treatment of a disease or disorder” (Novartis AG, priority 2021, dated 2024).

SMILES strings stand for the structures.

Data set [1] can be described thus: Pharmacokinetic study in male Beagle dogs. It counts as in vivo.
Data set [2] can be described thus: Pharmacokinetic properties in rats (IV and PO, whole blood LC-MS/MS). In kind it is in vivo, Spargue Dawley/CD, male. To be noted: for Rat AUC0-24 h 3 mg/kg: 3 mg/kg PO, suspension; for Rat AUC0-24 h 3 mg/kg / clearance: whole blood; for clearance: male, Sprague Dawley/CD, rat, IV dosing (0.3-1 mg/kg), CL = Dose/AUCinf; for Rat F: oral bioavailability, PO 3 mg/kg vs IV. As to the method:
The pharmacokinetic properties of the compounds in rats were assessed by the following in vivo studies as described below.
At least four days before first drug administration, the rats (250-350 g) were anesthetized and, under aseptic conditions, catheters were surgically implanted into the left and right jugular veins (one for blood collection and the other one for intravenous injection). The catheters were exteriorized and fixed at the neck. For analgesic treatment, animals received analgesics before surgery and subsequently twice at appropriate times after surgery. The freely-moving animals equipped with catheters are kept individually in Macrolon cages, with free access to food and water throughout the experiment. After a recovery phase of at least 4 days, a single test compound was administered intravenously or orally, based upon the individual body weights.
The test articles were administered as solution in NMP:PEG 200 (10:90 v/v). Test articles where no solution can be obtained were rejected and not used in discrete or cassette dosing.
The test article were administered as suspension in MC:Tween 80:water (0.5:0.1:99.4 w/v/v).
The test article was administered as solution and as a bolus injection or as short I.V. infusion (30 seconds) via the left jugular vein catheter to conscious rats. The dose volume was 0.5 mL/kg body weight.
The test article was administered as a solution or suspension into the esophagus via a gavage tube to conscious rats. The dose volume was 5 mL/kg body weight. The exact start time of dosing and exact dose volume was noted.
Blood samples (20 μL) were collected from the right jugular vein catheter of cannulated animals (if JV catheter becomes non patent during the PK experiment (i.e., after dosing), blood can exceptionally be collected by tail vein puncture but it must be clearly specified into the in-life observations and data study rep) in tubes containing 10% of blood of 2% W/V K2 EDTA (2.0 mg/mL) at the different time intervals. Blood was collected following IV dosing at 0.083, 0.25, 0.5, 1, 2, 4, 7 and 24 h post dose. Blood was collected following PO dosing: 0.25, 0.5, 1, 2, 4, 7 and 24 h post dose.
The concentrations of compounds in whole blood were quantified using a liquid chromatography/mass spectrometry (LC-MS/MS) assay. 20 μL of each blood sample were precipitated with 100 μL of acetonitrile containing generic internal standards (carbamazepine/telmisartan/verapamil; c=50 ng/mL). The samples were vortexed thoroughly then centrifuged (5 min, 4° C.). The supernatant (80 μL) was transferred to a clean 96-well plate and mixed with 80 μL of water.
The samples were injected (1 to 20 μL) onto suitable analytical columns, using various isocratic methods and flow rates. Mobile phases typically consisting of 0.1% formic acid in water (solvent A) and 0.1% formic acid in acetonitrile (solvent B) with additional modifiers, if needed. Compounds and the internal standards were eluted at various retention times. The HPLC systems were interfaced to mass spectrometers. MS/MS analyses were carried out using electrospray ionization (ESI), typically in the positive ionization mode. Compounds and the internal standards were monitored using multiple reaction monitoring (MRM).
The standard curves employed for sample quantitation ranged over several log units. The lower limit of quantitation (LLOQ) in blood was determined and used as cutoff for the analytical sensitivity. Known amounts of the compounds were spiked into blood to create quality control samples with six known concentrations in singlets. The accuracy of the in vivo blood sample concentration determination was considered acceptable when the intra-assay accuracies obtained for the quality control samples were within 70% to 130% of the expected concentrations. Subsequently, from the time concentration data, pharmacokinetic parameters were calculated by non-compartmental regression analyses using an in house fitting program. […]

Another data set concerns the target GIRK1/4 (Homo sapiens (Human), UniProt P48544+P48549). In words: GIRK1/4 activity assay (Quattro/IonWorks population patch clamp, inward potassium current). The settings on record: GIRK1/4 HEK293 stable cells; current inhibition normalized to DMSO-only control. It counts as cell-based. The protocol:
The GIRK1/4 activity of a compound according to the present invention was assessed by the following in vitro method.
• a. External buffer: 10 mM NaCl, 50 mM Na Gluconate, 80 mM K Gluconate, 1.8 mM CaCl2, 1 mM MgCl2, 10 mM HEPES, 10 mM Glucose, pH 7.4; osmolarity 300-310 Osm/L. • b. Internal buffer: 30 mM KCl, 100 mM K Gluconate, 1 mM MgCl2, 10 mM HEPES, 1 mM EGTA, 10 mM NaCl, pH 7.2; osmolarity 284-292 Osm/L. Compounds: • c. Prepare seven-fold compound dilution series (10 mM to 20 uM) in 100% DMSO, in 384-well polypropylene plates. • d. Propafenone (Sigma Aldrich, catalog number P4670) was used as a positive control and DMSO for neutral control • e. Resuspend 1 μl of compounds in DMSO into 66.7 μl external buffer in 384-well polypropylene plate and load into Plate 1 section of Molecular Devices Quattro® Quattro Setup: • f. Load 384-well Population Patch Plate (Molecular Devices #9000-0902) into Quattro • g. Fill Quattro F-soak trough with 20% DMSO and 50% EtOH • h. Fill Quattro buffer trough with external buffer • i. Attach internal buffer flask to Quattro internal buffer tubing • j. Attach PBS (Phosphate Buffered Saline, minus Ca^++ and Mg^++, pH7.4) bottle to F-head & E-head wash on Quattro Antibiotic: • k. Resuspend 5.1-5.8 mg amphotericin B (Sigma Aldrich, catalog number A2411) in 175 μl DMSO • l. Add the resulting solution to 50 mL internal buffer and attach to antibiotic tubing port on Quattro Cells: • m. Use GIRK1/4 HEK293 stable cells (obtained from ChanTest, 14656 Neo Parkway, Cleveland, Ohio 44128) grown to ˜80% confluency in the following cell culture medium: DMEM containing 10% (v/v) Fetal Bovine Serum, Penicillin/Streptomycin (at “IX” concentration from a 100× stock), 0.5 mg/mL G418 and 0.1 mg/mL Zeocin. • n. Detach cells using Detachin (Genlantis, 11011 Torreyana, San Diego, CA 92121), washed with PBS (minus Ca^++ and Mg^++) and resuspend in external buffer (5 mL final volume at 2.0-2.1×10^6 cells/mL) • o. Load into cell trough of Quattro Assay Protocol:
Quattro was controlled using IonWorks v2 software to perform the following steps: • p. Added 3.5 μl cells plus 3.5 μl external buffer to wells of Quattro Patch Plate® • q. Circulated amphotericin B and internal buffer onto cells • r. Applied the following voltage protocol: Pulse 1: 15 mV for 300 milliseconds (ms), followed by Pulse 2: −120 mV for 400 ms, then Pulse 3: −15 mV for 400 ms, and finally Pulse 4: −120 mV to 40 mV over 500 ms (this is a voltage ramp). • s. Measured magnitude of inward potassium current at time point between 1200-1220 ms from start of Pulse 1 (i.e., during the voltage ramp phase). • t. Added 3.5 μl of diluted compounds (or DMSO) to wells and repeated […] (final compound concentrations are 50 uM to 0.1 uM, and each concentration was tested in quadruplicate—i.e., in 4 separate wells). • u. The difference between current magnitude pre vs. post-compound gave a measure of GIRK1/4 inhibition. Data Analysis:
IC50 values were calculated by plotting the percentage of current inhibition (normalized to the DMSO-only control) as a function of compound concentration using standard data analysis software.

GIRK1/4, sequence (P48549 whole entry): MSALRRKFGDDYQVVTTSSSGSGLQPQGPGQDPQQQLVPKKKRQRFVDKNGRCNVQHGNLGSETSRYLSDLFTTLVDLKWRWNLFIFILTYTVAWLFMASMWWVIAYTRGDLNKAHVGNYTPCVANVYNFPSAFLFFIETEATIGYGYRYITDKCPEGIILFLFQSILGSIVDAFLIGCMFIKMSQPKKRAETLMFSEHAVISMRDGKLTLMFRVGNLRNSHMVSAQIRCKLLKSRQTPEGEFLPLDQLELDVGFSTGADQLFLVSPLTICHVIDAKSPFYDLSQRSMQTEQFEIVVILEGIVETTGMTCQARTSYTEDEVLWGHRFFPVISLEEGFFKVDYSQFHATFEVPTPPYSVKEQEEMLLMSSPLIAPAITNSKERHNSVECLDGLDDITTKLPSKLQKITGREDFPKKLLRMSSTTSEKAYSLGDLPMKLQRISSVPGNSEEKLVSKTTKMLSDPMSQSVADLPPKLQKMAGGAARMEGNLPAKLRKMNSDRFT
GIRK1/4, sequence (P48544 whole entry): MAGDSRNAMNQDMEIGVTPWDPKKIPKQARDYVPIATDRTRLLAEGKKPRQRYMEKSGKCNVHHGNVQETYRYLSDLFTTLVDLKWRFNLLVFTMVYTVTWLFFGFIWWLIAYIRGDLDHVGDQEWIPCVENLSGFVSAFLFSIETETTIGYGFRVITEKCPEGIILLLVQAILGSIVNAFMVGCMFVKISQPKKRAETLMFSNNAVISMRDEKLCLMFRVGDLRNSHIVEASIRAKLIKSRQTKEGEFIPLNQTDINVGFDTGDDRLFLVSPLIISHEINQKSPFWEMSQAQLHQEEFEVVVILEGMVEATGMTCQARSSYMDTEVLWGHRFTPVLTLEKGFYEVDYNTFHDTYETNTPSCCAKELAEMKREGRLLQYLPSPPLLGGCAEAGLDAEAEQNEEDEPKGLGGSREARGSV

In turn, `CNC(=O)CCOc1ncc(Cl)c2c1c(=O)cc(C)n2-c1c(Cl)cc(OCCO)cc1Cl` [Example 1, 3-((8-Chloro-1-(2,6-dichloro-4-(2-hydroxyethoxy)phenyl)-2-methyl-4-oxo-1,4-dihydro-1,6-naphthyridin-5-yl)oxy)-N-methylpropanamide] registered an AUC0-24 h in data set [1] (0.3 mg/kg IV solution and 1 mg/kg PO suspension) of 5270 nMh. In data set [1] (dog, in vivo, 0.3 mg/kg IV as a solution, read-out: Clearance (Cl)), the clearance came to 5.5 mL/min/kg. Further, in data set [1] (dog, in vivo, 1 mg/kg PO as a suspension vs 0.3 mg/kg IV, read-out: Oral bioavailability (F)), the bioavailability was determined as 87%. Also, in data set [2], the “Rat AUC0-24 h 3 mg/kg” value was 3270 nMh, the clearance stood at 20.2 mL/min/kg and the “Rat F” value is 71%. Moreover, the IC50 against GIRK1/4 is 90 nM.

Regarding `CNC(=O)CCOc1ncc(Cl)c2c1c(=O)cc(C)n2-c1c(Cl)cc(OC[C@@H](C)O)cc1Cl` [Example 6, (R)-3-((8-Chloro-1-(2,6-dichloro-4-(2-hydroxypropoxy)phenyl)-2-methyl-4-oxo-1,4-dihydro-1,6-naphthyridin-5-yl)oxy)-N-methylpropanamide], in data set [2], the “Rat AUC0-24 h 3 mg/kg” value was 3570 nMh, the clearance was 21.6 mL/min/kg and the “Rat F” value is 82%. At GIRK1/4, the IC50 worked out at 130 nM.

Turning to `CNC(=O)[C@H](C)COc1ncc(Cl)c2c1c(=O)cc(C)n2-c1c(Cl)cc(OCCO)cc1Cl` [Example 7, (R)-3-((8-Chloro-1-(2,6-dichloro-4-(2-hydroxyethoxy)phenyl)-2-methyl-4-oxo-1,4-dihydro-1,6-naphthyridin-5-yl)oxy)-N,2-dimethylpropanamide], in data set [2], the “Rat AUC0-24 h 3 mg/kg” value is 4410 nMh, the clearance worked out at 13.6 mL/min/kg and the “Rat F” value was found to be 61%. This compound showed an IC50 against GIRK1/4 of 70 nM.

On to `CC(=O)NCCOc1ncc(Cl)c2c1c(=O)cc(C)n2-c1c(Cl)cc(OCCO)cc1Cl` [Example 9, N-(2-((8-chloro-1-(2,6-dichloro-4-(2-hydroxyethoxy)phenyl)-2-methyl-4-oxo-1,4-dihydro-1,6-naphthyridin-5-yl)oxy)ethyl)acetamide], for which, in data set [2], the “Rat AUC0-24 h 3 mg/kg” value was 1460 nMh, the clearance came out at 24.2 mL/min/kg and the “Rat F” value is given as 40%. Besides, the IC50 on GIRK1/4 was 80 nM.

With `CNC(=O)[C@@H](O)COc1ncc(Cl)c2c1c(=O)cc(C)n2-c1c(Cl)cc(OCCO)cc1Cl` [Example 13, (S)-3-((8-Chloro-1-(2,6-dichloro-4-(2-hydroxyethoxy)phenyl)-2-methyl-4-oxo-1,4-dihydro-1,6-naphthyridin-5-yl)oxy)-2-hydroxy-N-methylpropanamide], in data set [2], the “Rat AUC0-24 h 3 mg/kg” value worked out at 2410 nMh, the clearance was 18.4 mL/min/kg and the “Rat F” value turned out to be 55%. Also, the half-inhibitory concentration (IC50) against GIRK1/4 was 60 nM.

Regarding `CNC(=O)CCOc1ncc(Cl)c2c1c(=O)cc(C)n2-c1c(Cl)cc(OCC2(O)COC2)cc1Cl` [Example 15, 3-((8-Chloro-1-(2,6-dichloro-4-((3-hydroxyoxetan-3-yl)methoxy)phenyl)-2-methyl-4-oxo-1,4-dihydro-1,6-naphthyridin-5-yl)oxy)-N-methylpropanamide], in data set [2], the “Rat AUC0-24 h 3 mg/kg” value turned out to be 1290 nMh, the clearance came to 32.8 mL/min/kg and the “Rat F” value came to 46%. The IC50 against GIRK1/4 was 320 nM.

For `CNC(=O)COc1cc(Cl)c(-n2c(C)cc(=O)c3c(OCC(N)=O)ncc(Cl)c32)c(Cl)c1` [Example 17, 2-(4-(5-(2-Amino-2-oxoethoxy)-8-chloro-2-methyl-4-oxo-1,6-naphthyridin-1(4H)-yl)-3,5-dichlorophenoxy)-N-methylacetamide], in data set [2], the “Rat AUC0-24 h 3 mg/kg” value is 2310 nMh, the clearance came to 31.7 mL/min/kg and the “Rat F” value is 73%. Moreover, at GIRK1/4, it took 250 nM to reach half-maximal inhibition (IC50).

As for `CC(=O)NCCCc1ncc(Cl)c2c1c(=O)cc(C)n2-c1c(Cl)cc(OCCO)cc1Cl` [Example 19, N-(3-(8-Chloro-1-(2,6-dichloro-4-(2-hydroxyethoxy)phenyl)-2-methyl-4-oxo-1,4-dihydro-1,6-naphthyridin-5-yl)propyl)acetamide], in data set [2], the “Rat AUC0-24 h 3 mg/kg” value amounted to 1290 nMh, the clearance is 27.9 mL/min/kg and the “Rat F” value was 46%. Further, the IC50 at GIRK1/4 came out at 50 nM.

For the compound `Cc1cc(=O)c2c(CCS(C)(=O)=O)ncc(Cl)c2n1-c1c(Cl)cc(OCCO)cc1Cl` [Example 20, 8-Chloro-1-(2,6-dichloro-4-(2-hydroxyethoxy)phenyl)-2-methyl-5-(2-(methylsulfonyl)ethyl)-1,6-naphthyridin-4(1H)-one], in data set [2], the “Rat AUC0-24 h 3 mg/kg” value is reported as 2407 nMh, the clearance came to 19.8 mL/min/kg and the “Rat F” value was 44%. At GIRK1/4, this compound showed an IC50 of 50 nM.

Consider `Cc1cc(=O)c2c(CCCS(C)(=O)=O)ncc(Cl)c2n1-c1c(Cl)cc(OCC(C)(C)O)cc1Cl` [Example 22, 8-Chloro-1-(2,6-dichloro-4-(2-hydroxy-2-methylpropoxy)phenyl)-2-methyl-5-(3-(methylsulfonyl)propyl)-1,6-naphthyridin-4(1H)-one], for which, in data set [2], the “Rat AUC0-24 h 3 mg/kg” value was 1360 nMh, the clearance worked out at 23.6 mL/min/kg and the “Rat F” value was 37%. The compound also showed a 50% inhibitory concentration (IC50) at GIRK1/4 of 190 nM.
